Earlier results on one compound are cited in patent US6874277B2, “Method and composition for promoting and controlling growth of plants” (priority 1988, dated 2005).

Read-outs that look alike come from different tables or passages of the source.

In the series the test system is tomato variety San Jose Extra Early. More on the design: Dry wt increase: unit not given here. As to conditions: duration 21 days.

Take `OC[C@H]1O[C@@](CO)(O[C@H]2O[C@H](CO)[C@@H](O)[C@H](O)[C@H]2O)[C@@H](O)[C@@H]1O` [10% sucrose solution, sucrose]: the Dry wt increase runs as follows: (1 spray) 16; (2 sprays) 41; (3 sprays) 50; (5 sprays) 93; (10 sprays) 163; (20 sprays) 408. For the same compound, the “Mean total dry wt” value is 204 mg (1 spray, 0 sprays 188); 229 mg (2 sprays); 238 mg (3 sprays); 281 mg (5 sprays); 352 mg (10 sprays); 596 mg (20 sprays).
